This note sets out measurements from patent publication US11000033B2, “Ketone or oxime compound, and herbicide” (NISSAN CHEMICAL CORPORATION, priority 2014, dated 2021).

Assay type in all cases: in vivo
One series deals with wheat. Kind of series: Test Example 4: effect on crop by soil treatment (symbol e). The note with it: for e: wheat, effect grade on crop: 320 g/ha; for e: wheat, effect on crop grade: application herbicide amount 320 g/ha. A digest of the protocol:
(§1)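 Sterilized diluvial soil, spot sowing, ~1.5 cm soil cover; greenhouse 25–30° C.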

In a further series the test system is soybean. Kind of series: Test Example 4: effect on crop by soil treatment (symbol d). The note with it: for d: soybean, effect grade on crop: 320 g/ha; for d: soybean, effect on crop grade: application herbicide amount 320 g/ha. A digest of the protocol:
as §1

Another series deals with rice. Kind of series: Test Example 4: effect on crop by soil treatment (symbol b). To be noted: for b: directly sowed rice plant, effect grade on crop: 320 g/ha; for b: directly sowed rice plant, effect on crop grade: application herbicide amount 320 g/ha. In short, it runs like this:
as §1

Another series relates to Scirpus juncoides. Kind of series: Test Example 1: herbicidal activity, application before weed generation in submerged conditions (symbol B). To be noted: application herbicide amount 320 g/ha. In short, it runs like this: (§2)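 In a flooded pot test with alluvial soil, the emulsion-formulated compound was diluted with water to a predetermined amount and applied to the floodwater immediately on the sowing day. Pots were held in a greenhouse at 25–30 °C for 3 weeks before each weed was rated.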

The next series concerns Cyperus difformis. Kind of series: Test Example 3: herbicidal effect by foliage application, Wagner pot (symbol E). The note with it: application herbicide amount 320 g/ha. In short, it runs like this: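 Plants sown in submerged alluvial soil (water depth 0.1–0.5 cm) in a 25–30 °C greenhouse and grown 14 days. An emulsion of the compound diluted in water to a set herbicide amount was sprayed uniformly on foliage. Effect on each plant scored 3 weeks after application.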

The subject of series [1] is Echinochloa oryzacola Vasing. Kind of series: Test Example 1: herbicidal activity, application before weed generation in submerged conditions (symbol A). To be noted: application herbicide amount 320 g/ha. In short, it runs like this:
as §2

In another series the test system is corn. Kind of series: Test Example 4: effect on crop by soil treatment (symbol c). To be noted: for c: corn, effect grade on crop: 320 g/ha; for c: corn, effect on crop grade: application herbicide amount 320 g/ha. In short, it runs like this:
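Soil-treatment setup: crop and weed seeds were spot-sown into sterilized diluvial soil, then buried beneath approximately 1.5 cm of it, and the boxes were housed in a 25–30° C. greenhouse.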

The next series concerns Galium spurium. Kind of series: Test Example 5: herbicidal effect by foliage application, plastic box (symbol Q). The note with it: 320 g/ha, 3 weeks after application. A digest of the protocol:
(§3)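 Greenhouse foliar test: seedlings at 14 days, grown 25° C. to 30° C. in sterilized diluvial soil; compound applied as an aqueous dilution of an emulsion; response read 3 weeks after spraying.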

The next series concerns transplanted rice plant. Kind of series: Test Example 1: effect on crop, application before weed generation in submerged conditions (symbol a). The note with it: application herbicide amount 320 g/ha. A digest of the protocol: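 Rice at 2.5 leaf stage transplanted into submerged soil (4 cm depth) sown with three weed species; herbicide applied before weed emergence.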
Series [2] deals with Alopecurus myosuroides. Kind of series: Test Example 4: herbicidal effect by soil treatment (symbol J). A digest of the protocol: (§4)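 Seeds were sown in sterilized diluvial soil, covered with about 1.5 cm of soil, and the soil surface was sprayed with a water-diluted emulsion of the compound at a predetermined rate. Plants grew in a greenhouse at 25° C. to 30° C.; effects were scored visually 3 weeks after application.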

In a further series the test system is Lolium multiflorum Lam. Kind of series: Test Example 5: herbicidal effect by foliage application, plastic box (symbol K). The note with it: 320 g/ha, 3 weeks after application. In short, it runs like this:
as §3

The next series concerns Stellaria media. Kind of series: Test Example 4: herbicidal effect by soil treatment (symbol P). A digest of the protocol: as §4
Series [3] concerns Alopecurus myosuroides. Kind of series: Test Example 5: herbicidal effect by foliage application, plastic box (symbol J). The note with it: 320 g/ha, 3 weeks after application. In short, it runs like this: as §3
The test system of another series is Setaria viridis. Kind of series: Test Example 5: herbicidal effect by foliage application, plastic box (symbol G). To be noted: 320 g/ha, 3 weeks after application. A digest of the protocol:
as §3

Where [4] appears, read: application herbicide amount 320 g/ha.

As to `CON=C(C)CC1CC(OC(=O)Cc2ccc(OC)cc2)=C(c2c(C)cc(C)cc2C)C1=O` (stereo not shown) [1-156], in the series with wheat, the “e: wheat, effect grade on crop” value is given as 5 (Herbicidal ratio of 90% or more (almost completely withered)). Moreover, in the series on soybean, the “d: soybean, effect grade on crop” value is on record as 0 (Herbicidal ratio of 5% or lower (almost no effect)). The “b: directly sowed rice plant, effect grade on crop” value in the series on rice was 5 (Herbicidal ratio of 90% or more (almost completely withered)). For the same compound, the “Herbicidal effect grade, B: Scirpus juncoides” value (“Herbicidal effect grade, B” below) in the series with Scirpus juncoides is 5 (Herbicidal ratio of 90% or more (almost completely withered)). Also, the “herbicidal effect on E, grade 0-5” value with Cyperus difformis is on record as 5 (Herbicidal ratio of 90% or more (almost completely withered)). The “Herbicidal effect grade, A: Echinochloa oryzacola Vasing.” value in series [1] is on record as 5 (Herbicidal ratio of 90% or more (almost completely withered)). The “c: corn, effect grade on crop” value with corn was 1 (Herbicidal ratio of 5% or higher and lower than 20%). In addition, the “Q: Galium spurium, herbicidal effect grade” value (“Q: Galium spurium” below) in the series on Galium spurium is 3 (Herbicidal ratio of 40% or higher and lower than 70%). In addition, the “Effect grade on crop, a: transplanted rice plant” value in the series on transplanted rice plant was 5 (Herbicidal ratio of 90% or more (almost completely withered)). Moreover, the “J: Alopecurus myosuroides, herbicidal effect grade” value (shortened to “J: Alopecurus myosuroides”) in the series on Alopecurus myosuroides [2] (320 g/ha) and in the series with Alopecurus myosuroides [3] was 5 (Herbicidal ratio of 90% or more (almost completely withered)) throughout. Also, the “K: Lolium multiflorum Lam., herbicidal effect grade” value in the series with Lolium multiflorum Lam. is on record as 5 (Herbicidal ratio of 90% or more (almost completely withered)). In addition, the “P: Stellaria media, herbicidal effect grade” value (“P: Stellaria media” for short) in the series with Stellaria media (320 g/ha) was 2 (Herbicidal ratio of 20% or higher and lower than 40%). Also, the “G: Setaria viridis, herbicidal effect grade” value (“G: Setaria viridis” for short) in the series with Setaria viridis is recorded as 5 (Herbicidal ratio of 90% or more (almost completely withered)).
For `CON=C(C)CC1CC(OS(=O)(=O)c2ccc(C)cc2)=C(c2c(C)cc(C)cc2C)C1=O` (stereo not shown) [1-161], in the series on wheat, the “e: wheat, effect grade on crop” value was 3 (Herbicidal ratio of 40% or higher and lower than 70%). Also, the “d: soybean, effect grade on crop” value in the series with soybean is 0 (Herbicidal ratio of 5% or lower (almost no effect)). In the series on rice, the “b: directly sowed rice plant, effect grade on crop” value is 3 (Herbicidal ratio of 40% or higher and lower than 70%). In addition, the “Herbicidal effect grade, B” value with Scirpus juncoides is 4 (Herbicidal ratio of 70% or higher and lower than 90%). The “herbicidal effect on E, grade 0-5” value in the series with Cyperus difformis is 4 (Herbicidal ratio of 70% or higher and lower than 90%). Besides, the “Herbicidal effect grade, A: Echinochloa oryzacola Vasing.” value in [1] was 5 (Herbicidal ratio of 90% or more (almost completely withered)). The “c: corn, effect grade on crop” value in the series on corn was 0 (Herbicidal ratio of 5% or lower (almost no effect)). For the same compound, in the series with Galium spurium, the “Q: Galium spurium” value is reported as 0 (Herbicidal ratio of 5% or lower (almost no effect)). For the same compound, in the series with transplanted rice plant, the “Effect grade on crop, a: transplanted rice plant” value was 4 (Herbicidal ratio of 70% or higher and lower than 90%). The “J: Alopecurus myosuroides” value with Alopecurus myosuroides [2] (320 g/ha) is 3 (Herbicidal ratio of 40% or higher and lower than 70%); with Alopecurus myosuroides [3], 5 (Herbicidal ratio of 90% or more (almost completely withered)). The “K: Lolium multiflorum Lam., herbicidal effect grade” value in the series on Lolium multiflorum Lam. was 5 (Herbicidal ratio of 90% or more (almost completely withered)). In addition, the “P: Stellaria media” value in the series on Stellaria media (320 g/ha) was 0 (Herbicidal ratio of 5% or lower (almost no effect)). Further, in the series on Setaria viridis, the “G: Setaria viridis” value is given as 0 (Herbicidal ratio of 5% or lower (almost no effect)).
With `COC(=O)C(C(C)=O)C1CC(O)=C(c2c(C)cc(C)cc2C)C1=O` (stereo not shown) [2-003], the “e: wheat, effect grade on crop” value with wheat was 0 (Herbicidal ratio of 5% or lower (almost no effect)). The “d: soybean, effect grade on crop” value in the series with soybean is on record as 0 (Herbicidal ratio of 5% or lower (almost no effect)). For the same compound, in the series with rice, the “b: directly sowed rice plant, effect grade on crop” value is 2 (Herbicidal ratio of 20% or higher and lower than 40%). In addition, the “Herbicidal effect grade, B” value with Scirpus juncoides is reported as 0 (Herbicidal ratio of 5% or lower (almost no effect)). In the series with Cyperus difformis, the “herbicidal effect on E, grade 0-5” value is 4 (Herbicidal ratio of 70% or higher and lower than 90%). Moreover, the “Herbicidal effect grade, A: Echinochloa oryzacola Vasing.” value in series [1] is 0 (Herbicidal ratio of 5% or lower (almost no effect)). The “c: corn, effect grade on crop” value in the series on corn was 0 (Herbicidal ratio of 5% or lower (almost no effect)). Further, in the series with Galium spurium, the “Q: Galium spurium” value was 0 (Herbicidal ratio of 5% or lower (almost no effect)). For the same compound, the “Effect grade on crop, a: transplanted rice plant” value in the series on transplanted rice plant is 0 (Herbicidal ratio of 5% or lower (almost no effect)). Besides, the “J: Alopecurus myosuroides” value is 4 (Herbicidal ratio of 70% or higher and lower than 90%) in the series with Alopecurus myosuroides [2] (320 g/ha); 5 (Herbicidal ratio of 90% or more (almost completely withered)) with Alopecurus myosuroides [3]. Also, the “K: Lolium multiflorum Lam., herbicidal effect grade” value in the series on Lolium multiflorum Lam. is recorded as 5 (Herbicidal ratio of 90% or more (almost completely withered)). In the series on Stellaria media (320 g/ha), the “P: Stellaria media” value is listed as 0 (Herbicidal ratio of 5% or lower (almost no effect)). Further, the “G: Setaria viridis” value in the series on Setaria viridis is reported as 5 (Herbicidal ratio of 90% or more (almost completely withered)).
Regarding `CCOC(=O)C(C(=O)Cc1ccccc1)C1CC(O)=C(c2c(C)cc(C)cc2C)C1=O` (stereo not shown) [2-011], in the series with wheat, the “e: wheat, effect on crop grade” value is given as 0 (Herbicidal ratio of 5% or lower (almost no effect)). Further, in the series with soybean, the “d: soybean, effect on crop grade” value is listed as 0 (Herbicidal ratio of 5% or lower (almost no effect)). Further, in the series on rice, the “b: directly sowed rice plant, effect on crop grade” value is recorded as 0 (Herbicidal ratio of 5% or lower (almost no effect)). Besides, the “Herbicidal effect grade, B” value in the series with Scirpus juncoides is listed as 0 (Herbicidal ratio of 5% or lower (almost no effect)). Also, in the series with Cyperus difformis, the “herbicidal effect on E, grade 0-5” value is recorded as 0 (Herbicidal ratio of 5% or lower (almost no effect)). The “Herbicidal effect grade, A: Echinochloa oryzacola Vasing.” value in series [1] is 0 (Herbicidal ratio of 5% or lower (almost no effect)). Further, the “c: corn, effect on crop grade” value with corn is reported as 0 (Herbicidal ratio of 5% or lower (almost no effect)). Also, in the series with Galium spurium, the “Q: Galium spurium” value is 0 (Herbicidal ratio of 5% or lower (almost no effect)). In addition, the “Effect grade on crop, a: transplanted rice plant” value in the series with transplanted rice plant was 0 (Herbicidal ratio of 5% or lower (almost no effect)). Further, the “J: Alopecurus myosuroides” value is 0 (Herbicidal ratio of 5% or lower (almost no effect)) in the series with Alopecurus myosuroides [2] (setting [4]); 1 (Herbicidal ratio of 5% or higher and lower than 20%) with Alopecurus myosuroides [3]. Moreover, the “K: Lolium multiflorum Lam., herbicidal effect grade” value with Lolium multiflorum Lam. is 2 (Herbicidal ratio of 20% or higher and lower than 40%). In addition, the “P: Stellaria media” value in the series on Stellaria media (setting [4]) is given as 0 (Herbicidal ratio of 5% or lower (almost no effect)). Further, in the series on Setaria viridis, the “G: Setaria viridis” value is 0 (Herbicidal ratio of 5% or lower (almost no effect)).
Regarding `CCOC(=O)C(CC)(C(C)=O)C1CC(O)=C(c2c(C)cc(C)cc2C)C1=O` (stereo not shown) [2-012], in the series on wheat, the “e: wheat, effect on crop grade” value is recorded as 0 (Herbicidal ratio of 5% or lower (almost no effect)). In the series on soybean, the “d: soybean, effect on crop grade” value is reported as 0 (Herbicidal ratio of 5% or lower (almost no effect)). In the series with rice, the “b: directly sowed rice plant, effect on crop grade” value is 0 (Herbicidal ratio of 5% or lower (almost no effect)). Further, in the series with Scirpus juncoides, the “Herbicidal effect grade, B” value is reported as 0 (Herbicidal ratio of 5% or lower (almost no effect)). The “herbicidal effect on E, grade 0-5” value in the series on Cyperus difformis was 0 (Herbicidal ratio of 5% or lower (almost no effect)). Further, in series [1], the “Herbicidal effect grade, A: Echinochloa oryzacola Vasing.” value is reported as 0 (Herbicidal ratio of 5% or lower (almost no effect)). Also, the “c: corn, effect on crop grade” value with corn is 0 (Herbicidal ratio of 5% or lower (almost no effect)). The “Q: Galium spurium” value in the series with Galium spurium is recorded as 0 (Herbicidal ratio of 5% or lower (almost no effect)). For the same compound, the “Effect grade on crop, a: transplanted rice plant” value with transplanted rice plant is given as 0 (Herbicidal ratio of 5% or lower (almost no effect)). For the same compound, the “J: Alopecurus myosuroides” value with Alopecurus myosuroides [2] (setting [4]) is 0 (Herbicidal ratio of 5% or lower (almost no effect)); in the series with Alopecurus myosuroides [3], 1 (Herbicidal ratio of 5% or higher and lower than 20%). Also, the “K: Lolium multiflorum Lam., herbicidal effect grade” value with Lolium multiflorum Lam. is 3 (Herbicidal ratio of 40% or higher and lower than 70%). For the same compound, the “P: Stellaria media” value in the series with Stellaria media (setting [4]) is given as 0 (Herbicidal ratio of 5% or lower (almost no effect)). Also, in the series on Setaria viridis, the “G: Setaria viridis” value is 0 (Herbicidal ratio of 5% or lower (almost no effect)).
